Source: US5114464A, “4-quinoxalinyloxyphenoxyalkylinitrile herbicides” (Uniroyal Chemical Company, Inc., priority 1990, dated 1992)

Tests used:
velvet leaf [1] = assay: Preemergence control of velvet leaf (Table I); assay type: in vivo, Abutilon theoohrasti Medic.; conditions: 11.2 kg/ha, two weeks after treatment
Experimental: (§1) To illustrate the effectiveness of the Compounds 1 and 2 of this invention as preemergence herbicides, 300 mg of each compound were dissolved in 10 ml acetone to which 30 mg of an emulsifying agent, ethoxylated sorbitan monolaurate, were added. The solution was diluted to 100 ml with distilled water. Ten milliliters of the 3000 ppm solution were diluted to 250 ppm with distilled water. The chemical was applied at the rate of 10 lb/A (11.2 kg/ha) by drenching 46 ml of the 250 ppm solution on the surface of soil in 41/2inch (11.25 cm) plastic pots wherein seeds of the following weeds had been planted: velvet leaf (Abutilon theoohrasti Medic.) (VL), prickly sida (sida soinosa L.) (PS), tall morningglory (Ioomea purourea L. Roth) (TM), switchgrass (Panicum viroatum L.) (SG), barnyard grass (Echinolchloa crus-oalli (L.) Beauv.) (BG), and green foxtail (Setaria viridis) (L.) Beauv.) (GF). The percent control of the weeds compared to untreated checks was determined two weeks after treatment.

prickly sida [2] = assay: Preemergence control of prickly sida (Table I); assay type: in vivo, sida soinosa L.; conditions: 11.2 kg/ha, two weeks after treatment
Experimental: as §1

tall morningglory [3] = assay: Preemergence control of tall morningglory (Table I); assay type: in vivo, Ioomea purourea L. Roth; conditions: 11.2 kg/ha, two weeks after treatment
Experimental: as §1

barnyard grass [4] = assay: Preemergence control of barnyard grass (Table I); assay type: in vivo, Echinolchloa crus-oalli (L.) Beauv.; conditions: 11.2 kg/ha, two weeks after treatment
Experimental: as §1

switchgrass [5] = assay: Preemergence control of switchgrass (Table I); assay type: in vivo, Panicum viroatum L.; conditions: 11.2 kg/ha, two weeks after treatment
Experimental: as §1

green foxtail [6] = assay: Preemergence control of green foxtail (Table I); assay type: in vivo, Setaria viridis (L.) Beauv.; conditions: 11.2 kg/ha, two weeks after treatment
Experimental: as §1

velvet leaf [7] = assay: Postemergence control of velvet leaf (Table II); assay type: in vivo, Abutilon theoohrasti Medic.; conditions: 3000 ppm, two weeks after treatment
Experimental: as §1
(§2) To test the effectiveness of Compounds 1 and 2 of this invention as postemergence herbicides, a 3000 ppm solution of each compound (produced in accordance with the process described under Example 3) was atomized employing a DEVILBISS [trademark] sprayer, wetting the foliage to the drip point. […] The percent weed control was evaluated two weeks after treatment.

prickly sida [8] = assay: Postemergence control of prickly sida (Table II); assay type: in vivo, sida soinosa L.; conditions: 3000 ppm, two weeks after treatment
Experimental: as §1, §2

tall morningglory [9] = assay: Postemergence control of tall morningglory (Table II); assay type: in vivo, Ioomea purourea L. Roth; conditions: 3000 ppm, two weeks after treatment
Experimental: as §1, §2

barnyard grass [10] = assay: Postemergence control of barnyard grass (Table II); assay type: in vivo, Echinolchloa crus-oalli (L.) Beauv.; conditions: 3000 ppm, two weeks after treatment
Experimental: as §1, §2

switchgrass [11] = assay: Postemergence control of switchgrass (Table II); assay type: in vivo, Panicum viroatum L.; conditions: 3000 ppm, two weeks after treatment
Experimental: as §1, §2

green foxtail [12] = assay: Postemergence control of green foxtail (Table II); assay type: in vivo, Setaria viridis (L.) Beauv.; conditions: 3000 ppm, two weeks after treatment
Experimental: as §1, §2

switchgrass [13] = assay: Postemergence selectivity, greenhouse: switchgrass control (Table III); assay type: in vivo, Panicum viroatum L.; conditions: 250 ppm, treated May 26, rated Jun. 12
Experimental: as §1
(§3) To illustrate the effectiveness of Compound 1 of this invention as a corn-safe selective postemergence herbicide, the 3000 ppm solution prepared as described in Example 3 was diluted with distilled water to 250 ppm and applied to foliage as described in Example 3. The commercial product Hoelon 3EC® (Hoechst) was included as a standard. […] The percent weed control and crop injury was determined on Jun. […]

barnyard grass [14] = assay: Postemergence selectivity, greenhouse: barnyard grass control (Table III); assay type: in vivo, Echinolchloa crus-oalli (L.) Beauv.; conditions: 250 ppm, treated May 26, rated Jun. 12
Experimental: as §1, §3

green foxtail [15] = assay: Postemergence selectivity, greenhouse: green foxtail control (Table III); assay type: in vivo, Setaria viridis (L.) Beauv.; conditions: 250 ppm, treated May 26, rated Jun. 12
Experimental: as §1, §3

corn = assay: Postemergence selectivity, greenhouse: corn injury (Table III); assay type: in vivo; conditions: 250 ppm
Experimental: as §1, §3

soybean = assay: Postemergence selectivity, greenhouse: soybean injury (Table III); assay type: in vivo; conditions: 250 ppm, treated May 26, rated Jun. 12
Experimental: as §1, §3

cotton = assay: Postemergence selectivity, greenhouse: cotton injury (Table III); assay type: in vivo; conditions: 250 ppm, treated May 26, rated Jun. 12
Experimental: as §1, §3

Giant foxtail = assay: Postemergence selectivity, field test: Giant foxtail control (Table IV); assay type: in vivo; conditions: 33 days after treatment
Experimental: (§4) To further illustrate the effectiveness of Compound 1 of this invention as a corn-safe selective postemergence herbicide, field tests were run in which five corn hybrids (designated C9979, C6114, C8004 and C1914 by the Independent Professional Seedsmans Association, and Pioneer 3295) along with two grass weeds (Giant foxtail, "GF"; and Barnyard grass, "BG") were planted in an Illinois field on April 24. The crops were treated with various amounts of Compound 1 in early Jun., and the amount of crop control was evaluated 33 days after treatment compared to an untreated control. The active ingredient was formulated as follows: […]
(§5) That produces a formulation containing 10% active ingredient by weight. The required amount of formulation to produce the indicated rate per acre is added to water, mixed with one quart of an adjuvant containing 83% mineral oil and 17% emulsifiers, then brought up to a total spray volume of 20 gallons per acre with water.

Barnyard grass [16] = assay: Postemergence selectivity, field test: Barnyard grass control (Table IV); assay type: in vivo; conditions: 33 days after treatment
Experimental: as §4, §5

corn hybrids = assay: Postemergence selectivity, field test: corn hybrids (Table IV); assay type: in vivo; conditions: for Percent corn crop control (injury): 33 days
Experimental: as §4, §5

weeds [17] = assay: Preemergence control, summary statement; assay type: in vivo; conditions: 11.2 kg/ha
Experimental: as §1

weeds [18] = assay: Postemergence control, summary statement; assay type: in vivo; conditions: 3000 ppm
Experimental: as §1, §2

grass weeds [19] = assay: Postemergence selectivity greenhouse (Example 5), summary for grass weeds; assay type: in vivo; conditions: 250 ppm
Experimental: as §1, §3

grass weeds [20] = assay: Postemergence selectivity field test (Example 6), summary for grass weeds; assay type: in vivo; conditions: 0.125 to 0.50 lb/a
Experimental: as §4, §5

N#CCOc1ccc(Oc2cnc3cc(Cl)ccc3n2)cc1 [Compound 1, 2-[4-(6-chloro-2-quinoxalinyloxy)phenoxy]acetonitrile]
% Control VL (velvet leaf [1]): 0% | % Control PS (prickly sida [2]): 0% | % Control TM (tall morningglory [3]): 0% | % Control BG (barnyard grass [4]): 100% | % Control SG (switchgrass [5]): 50% | % Control GF (green foxtail [6]): 90% | % Control VL (velvet leaf [7]): 0% | % Control PS (prickly sida [8]): 0% | % Control TM (tall morningglory [9]): 0% | % Control BG (barnyard grass [10]): 100% | % Control SG (switchgrass [11]): 100% | % Control GF (green foxtail [12]): 9% | Percent weed control SG (switchgrass [13]): 100% | Percent Weed Control BG (barnyard grass [14]): 100% | Percent Weed Control GF (green foxtail [15]): 90% | corn safety (corn): substantially innocuous to corn | Percent crop injury CORN (corn; treated May 26, rated Jun. 12): 0% | Percent crop injury SOYBEAN (soybean): 0% | Percent crop injury COTTON (cotton): 0% | Percent Weed Control GF (Giant foxtail; 0.125 lb/a): 99.3% | Percent Weed Control GF (Giant foxtail; 0.25 lb/a): 100% | Percent Weed Control GF (Giant foxtail; 0.50 lb/a): 100% | Percent Weed Control BG (Barnyard grass [16]; 0.125 lb/a): 30.0% | Percent Weed Control BG (Barnyard grass [16]; 0.25 lb/a): 43.3% | Percent Weed Control BG (Barnyard grass [16]; 0.50 lb/a): 90.0% | corn safety (corn hybrids; 0.125 to 0.50 lb/a): substantially innocuous to corn | Percent corn crop control (injury) (corn hybrids; corn hybrid C1914, 0.125 lb/a): 0% | Percent corn crop control (injury) (corn hybrids; corn hybrid C1914, 0.25 lb/a): 0% | Percent corn crop control (injury) (corn hybrids; corn hybrid C1914, 0.50 lb/a): 0% | Percent corn crop control (injury) (corn hybrids; corn hybrid C6114, 0.125 lb/a): 0% | Percent corn crop control (injury) (corn hybrids; corn hybrid C6114, 0.25 lb/a): 0% | Percent corn crop control (injury) (corn hybrids; corn hybrid C6114, 0.50 lb/a): 0% | Percent corn crop control (injury) (corn hybrids; corn hybrid C8004, 0.125 lb/a): 0% | Percent corn crop control (injury) (corn hybrids; corn hybrid C8004, 0.25 lb/a): 0% | Percent corn crop control (injury) (corn hybrids; corn hybrid C8004, 0.50 lb/a): 0% | Percent corn crop control (injury) (corn hybrids; corn hybrid C9979, 0.125 lb/a): 0% | Percent corn crop control (injury) (corn hybrids; corn hybrid C9979, 0.25 lb/a): 0% | Percent corn crop control (injury) (corn hybrids; corn hybrid C9979, 0.50 lb/a): 0% | Percent corn crop control (injury) (corn hybrids; corn hybrid Pioneer 3295, 0.125 lb/a): 0% | Percent corn crop control (injury) (corn hybrids; corn hybrid Pioneer 3295, 0.25 lb/a): 0% | Percent corn crop control (injury) (corn hybrids; corn hybrid Pioneer 3295, 0.50 lb/a): 0% | herbicidal efficacy (weeds [17]): good to excellent herbicidal efficacy | postemergent herbicidal control (weeds [18]): desirable postemergent herbicidal control | control of several grass weeds (grass weeds [19]): good control of several grass weeds | control of several grass weeds (grass weeds [20]): good control of several grass weeds
